Measurements published in US20230416330A1, “Optimized GIP Peptide Analogues” (Antag Therapeutics ApS, priority 2019, published 2023).
Starred links: 1 amine or outer side, 2 acyl side, 3 side chain; linkers in the order of their positions; H or OH if unused. Non-standard residues stand in square brackets, D forms with d. Residues, ends and D or L forms follow the SMILES beside them. Groups on a side chain read outwards from the residue. *: point of attachment. C18 diacid = O=C(O)CCCCCCCCCCCCCCCCC(=O)*; C16 diacid = O=C(O)CCCCCCCCCCCCCCC(=O)*; γGlu = O=C(O)[C@H](CCC(=O)[*:2])N[*:1]; Glutaryl = O=C(CCCC(=O)[*:2])[*:1]; Nle = CCCC[C@H](N)C(=O)O; AEEA = NCCOCCOCC(=O)O; Aib = CC(C)(N)C(=O)O

Biological target: T1, human GIP receptor (Homo sapiens, UniProt P48546)
T1 construct: host or cells: HEK-293 cells, transient transfection (Lipofectamine 2000), cDNA in pCMV-Script vector
T1 sequence (P48546 22-466): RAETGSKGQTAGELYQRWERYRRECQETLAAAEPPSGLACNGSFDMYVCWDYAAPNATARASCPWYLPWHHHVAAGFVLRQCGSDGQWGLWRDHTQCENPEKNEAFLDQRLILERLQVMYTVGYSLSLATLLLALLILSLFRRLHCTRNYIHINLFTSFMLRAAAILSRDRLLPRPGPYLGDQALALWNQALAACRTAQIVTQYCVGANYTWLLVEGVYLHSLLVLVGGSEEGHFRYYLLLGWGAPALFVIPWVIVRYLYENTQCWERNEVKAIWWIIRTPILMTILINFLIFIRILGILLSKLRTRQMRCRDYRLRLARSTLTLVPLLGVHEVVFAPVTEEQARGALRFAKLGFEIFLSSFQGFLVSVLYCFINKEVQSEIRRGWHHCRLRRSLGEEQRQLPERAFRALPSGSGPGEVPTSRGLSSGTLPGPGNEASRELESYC
Assay: cAMP assay Alternative 1 (CisBio assay), GIPR antagonism
Assay type: cell-based
Settings: for cAMP antagonism % inhib: Table 2B, % inhibition of Emax
Experimental: HEK293 cells were cultured in 10% CO2 and 37° C. in Dulbecco's modified Eagle's medium supplemented with 10% fetal bovine serum, 2 mM glutamine, 180 units/ml penicillin, and 45 µg/ml streptomycin. Transient transfection with hGIPR for the CisBio assay from Table 2C was performed by using Lipofectamine 2000.
The in vitro functional activity of compounds towards human GIP receptor can also be determined in HEK-293 cells transiently expressing the receptor. On the day of the assay, cells were resuspended in HBSS buffer (Gibco, 14025-50) supplemented with […] (Gibco, 15630-106), 0.1% Pluronic F-68 (Gibco, 24040-032) and 0.1% casein (Sigma, C4765), and plated in 384-well plates at a density of 5000 cells/well. The GIP peptide analogues of the present disclosure were diluted in HBSS buffer supplemented with 20 mM HEPES, 0.1% pluronic, 0.1% casein and 500 uM IBMX. […] The resulting decrease in intracellular cAMP was quantitatively determined using the CisBio cAMP Dynamic 2 HTRF Assay Kit. The assay is based on a competition between native cAMP produced by cells and cAMP labeled with the dye d2 for binding to a cryptate labeled antibody. The specific signal (i.e. energy transfer signal) is inversely proportional to the concentration of cAMP in the sample.
The cAMP-d2 conjugate and the antibody anti-cAMP-Cryptate, both diluted in lysis buffer provided in the kit, were added to the cells according to the manufacturer's protocol. The resulting competitive assay was incubated for 60 minutes at room temperature, and the signal was detected by using a PerkinElmer Envision® instrument with excitation at 320 nm and emission at 665 nm and 620 nm. The HTRF ratio (emission at 665 nm/620 nm*10,000) is inversely proportional to the amount of cAMP present and is converted to nM cAMP per well using a cAMP standard curve. The dose-response curves were fitted using the non-linear regression analysis (four-logistic parameter equation) in GraphPad Prism, whereby pIC50 values were estimated. To test for agonistic properties at the GIP receptor, compounds were diluted and added to cells as described above and incubated for 30 min at 37° C. The resulting increase in intracellular cAMP was determined using the CisBio cAMP Dynamic 2 HTRF Assay Kit as described above.
The dose-response curves were fitted using the non-linear regression analysis (four-logistic parameter equation) in GraphPad Prism, whereby pIC50 values were estimated.

Compound: CCCC[C@H](NC(=O)C(C)(C)NC(=O)[C@@H](NC(=O)[C@H](CO)NC(=O)[C@H](Cc1ccc(O)cc1)NC(=O)[C@H](CC(=O)O)NC(=O)[C@H](CO)NC(=O)[C@@H](NC(=O)[C@H](Cc1ccccc1)NC(=O)[C@@H](NC(=O)CNC(=O)[C@@H](N)CCC(=O)O)[C@@H](C)O)[C@@H](C)CC)[C@@H](C)CC)C(=O)N[C@@H](CC(=O)O)C(=O)N[C@@H](CCCCN)C(=O)N[C@H](C(=O)N[C@@H](CCCCNC(=O)CCCCCCCCCCCCCCC(=O)O)C(=O)N[C@@H](CCC(N)=O)C(=O)N[C@@H](CCC(N)=O)C(=O)N[C@@H](CC(=O)O)C(=O)N[C@@H](Cc1ccccc1)C(=O)N[C@H](C(=O)N[C@@H](CCC(=O)O)C(=O)N[C@@H](Cc1c[nH]c2ccccc12)C(=O)N[C@@H](CC(C)C)C(=O)N[C@@H](CC(C)C)C(=O)N[C@@H](C)C(=O)N[C@@H](CCC(N)=O)C(=O)N[C@@H](CCCCN)C(=O)N1CCC[C@H]1C(=O)N[C@@H](CO)C(=O)N[C@@H](CO)C(=O)NCC(=O)N[C@@H](C)C(=O)N1CCC[C@H]1C(=O)N1CCC[C@H]1C(=O)N1CCC[C@H]1C(=O)N[C@@H](CO)C(=O)O)C(C)C)[C@@H](C)CC [AT667] (H-EGTFISDYSI[Aib][Nle]DKIK(C16 diacid)QQDFVEWLLAQKPSSGAPPPS-OH; N-terminus assumed)
- cAMP antagonism % inhib: 86%

Compound: CC[C@H](C)[C@H](NC(=O)[C@H](CO)NC(=O)[C@H](Cc1ccc(O)cc1)NC(=O)[C@H](CC(=O)O)NC(=O)[C@H](CO)NC(=O)[C@@H](NC(=O)[C@H](Cc1ccccc1)NC(=O)[C@@H](NC(=O)CNC(=O)[C@@H](N)CCC(=O)O)[C@@H](C)O)[C@@H](C)CC)C(=O)N[C@@H](C)C(=O)N[C@@H](CC(C)C)C(=O)N[C@@H](CC(=O)O)C(=O)N[C@@H](CCCCN)C(=O)N[C@H](C(=O)N[C@@H](CCCCNC(=O)COCCOCCNC(=O)COCCOCCNC(=O)CC[C@H](NC(=O)CCCCCCCCCCCCCCCCC(=O)O)C(=O)O)C(=O)N[C@@H](CCC(N)=O)C(=O)N[C@@H](CCC(N)=O)C(=O)N[C@@H](CC(=O)O)C(=O)N[C@@H](Cc1ccccc1)C(=O)N[C@H](C(=O)N[C@@H](CCC(=O)O)C(=O)N[C@@H](Cc1c[nH]c2ccccc12)C(=O)N[C@@H](CC(C)C)C(=O)N[C@@H](CC(C)C)C(=O)N[C@@H](C)C(=O)N[C@@H](CCC(N)=O)C(=O)N[C@@H](CCCCN)C(=O)N1CCC[C@H]1C(=O)N[C@@H](CO)C(=O)N[C@@H](CO)C(=O)NCC(=O)N[C@@H](C)C(=O)N1CCC[C@H]1C(=O)N1CCC[C@H]1C(=O)N1CCC[C@H]1C(=O)N[C@@H](CO)C(=O)O)C(C)C)[C@@H](C)CC [AT682] (H-EGTFISDYSIALDKIK([AEEA-AEEA-γGlu-C18 diacid])QQDFVEWLLAQKPSSGAPPPS-OH; N-terminus assumed)
- cAMP antagonism % inhib: 89%

Compound: CCCC[C@H](NC(=O)[C@H](C)NC(=O)[C@@H](NC(=O)[C@H](CO)NC(=O)[C@H](Cc1ccc(O)cc1)NC(=O)[C@H](CC(=O)O)NC(=O)[C@H](CO)NC(=O)[C@@H](NC(=O)[C@H](Cc1ccccc1)NC(=O)[C@@H](NC(=O)CNC(=O)CCCC(=O)O)[C@@H](C)O)[C@@H](C)CC)[C@@H](C)CC)C(=O)N[C@@H](CC(=O)O)C(=O)N[C@@H](CCCCN)C(=O)N[C@H](C(=O)N[C@@H](CCCCNC(=O)COCCOCCNC(=O)COCCOCCNC(=O)CC[C@H](NC(=O)CCCCCCCCCCCCCCCCC(=O)O)C(=O)O)C(=O)N[C@@H](CCC(N)=O)C(=O)N[C@@H](CCC(N)=O)C(=O)N[C@@H](CC(=O)O)C(=O)N[C@@H](Cc1ccccc1)C(=O)N[C@H](C(=O)N[C@@H](CCC(=O)O)C(=O)N[C@@H](Cc1c[nH]c2ccccc12)C(=O)N[C@@H](CC(C)C)C(=O)N[C@@H](CC(C)C)C(=O)N[C@@H](C)C(=O)N[C@@H](CCC(N)=O)C(=O)N[C@@H](CCCCN)C(=O)N1CCC[C@H]1C(=O)N[C@@H](CO)C(=O)N[C@@H](CO)C(=O)NCC(=O)N[C@@H](C)C(=O)N1CCC[C@H]1C(=O)N1CCC[C@H]1C(=O)N1CCC[C@H]1C(=O)N[C@@H](CO)C(=O)O)C(C)C)[C@@H](C)CC [AT702] (Glutaryl-GTFISDYSIA[Nle]DKIK([AEEA-AEEA-γGlu-C18 diacid])QQDFVEWLLAQKPSSGAPPPS-OH)
- cAMP antagonism % inhib: 85%

Compound: CCCC[C@H](NC(=O)[C@H](C)NC(=O)[C@@H](NC(=O)[C@H](CO)NC(=O)[C@H](Cc1ccc(O)cc1)NC(=O)[C@H](CC(=O)O)NC(=O)[C@H](CO)NC(=O)[C@@H](NC(=O)[C@H](Cc1ccccc1)NC(=O)[C@@H](NC(=O)CNC(=O)[C@@H](N)CCC(=O)O)[C@@H](C)O)[C@@H](C)CC)[C@@H](C)CC)C(=O)N[C@@H](CC(=O)O)C(=O)N[C@@H](CCCCN)C(=O)N[C@H](C(=O)N[C@@H](CCCCNC(=O)COCCOCCNC(=O)COCCOCCNC(=O)CC[C@H](NC(=O)CCCCCCCCCCCCCCCCC(=O)O)C(=O)O)C(=O)N[C@@H](CCC(N)=O)C(=O)N[C@@H](CCC(N)=O)C(=O)N[C@@H](CC(=O)O)C(=O)N[C@@H](Cc1ccccc1)C(=O)N[C@H](C(=O)N[C@@H](CCC(=O)O)C(=O)N[C@@H](Cc1c[nH]c2ccccc12)C(=O)N[C@@H](CC(C)C)C(=O)N[C@@H](CC(C)C)C(=O)N[C@@H](C)C(=O)N[C@@H](CCC(N)=O)C(=O)N[C@@H](CCCCN)C(=O)N1CCC[C@H]1C(=O)N[C@@H](CO)C(=O)N[C@@H](CO)C(=O)NCC(=O)N[C@@H](C)C(=O)N1CCC[C@H]1C(=O)N1CCC[C@H]1C(=O)N1CCC[C@H]1C(=O)N[C@@H](CO)C(=O)O)C(C)C)[C@@H](C)CC [AT683] (H-EGTFISDYSIA[Nle]DKIK([AEEA-AEEA-γGlu-C18 diacid])QQDFVEWLLAQKPSSGAPPPS-OH; N-terminus assumed)
- cAMP antagonism % inhib: 93%

Compound: CC[C@H](C)[C@H](NC(=O)[C@H](CO)NC(=O)[C@H](Cc1ccc(O)cc1)NC(=O)[C@H](CC(=O)O)NC(=O)[C@H](CO)NC(=O)[C@@H](NC(=O)[C@H](Cc1ccccc1)NC(=O)[C@@H](NC(=O)CNC(=O)[C@@H](N)CCC(=O)O)[C@@H](C)O)[C@@H](C)CC)C(=O)N[C@@H](C)C(=O)N[C@@H](CCSC)C(=O)N[C@@H](CC(=O)O)C(=O)N[C@@H](CCCCN)C(=O)N[C@H](C(=O)N[C@@H](CCCCNC(=O)CCCCCCCCCCCCCCC(=O)O)C(=O)N[C@@H](CCC(N)=O)C(=O)N[C@@H](CCC(N)=O)C(=O)N[C@@H](CC(=O)O)C(=O)N[C@@H](Cc1ccccc1)C(=O)N[C@H](C(=O)N[C@@H](CCC(=O)O)C(=O)N[C@@H](Cc1c[nH]c2ccccc12)C(=O)N[C@@H](CC(C)C)C(=O)N[C@@H](CC(C)C)C(=O)N[C@@H](C)C(=O)N[C@@H](CCC(N)=O)C(=O)N[C@@H](CCCCN)C(=O)N1CCC[C@H]1C(=O)N[C@@H](CO)C(=O)N[C@@H](CO)C(=O)NCC(=O)N[C@@H](C)C(=O)N1CCC[C@H]1C(=O)N1CCC[C@H]1C(=O)N1CCC[C@H]1C(=O)N[C@@H](CO)C(=O)O)C(C)C)[C@@H](C)CC [AT617] (H-EGTFISDYSIAMDKIK(C16 diacid)QQDFVEWLLAQKPSSGAPPPS-OH; N-terminus assumed)
- IC50: 0.794 nM
- cAMP antagonism % inhib: 91%
